# Results reported in article PMC7394103 (Frontiers in Pharmacology, 2020).
# Tests used:
# [1] = target: T1, AChE (Homo sapiens, UniProt P22303); assay: AChE inhibition assay (Ellman-based kit); format: biochemical; conditions: concentration causing 30% inhibition
# T1 construct: purchased Sigma-Aldrich
# Procedure: The inhibitory effect of test compounds on AChE activity was performed using an AChE inhibitor screening kit from Sigma-Aldrich. The kit is based on an improved Ellman method, whereby thiocholine produced from AChE activity forms a yellow color with 5,5’-dithiobis(2-nitrobenzoic acid), and the intensity the color (412 nm) is proportional to enzyme activity. […] IC30 was obtained by graphing the % inhibition of enzyme activity versus the logarithm of concentration of test compound using 5–7 tested concentrations.
# [2] = system: IL-6 secretion by HUVEC; assay: IL-1β-induced IL-6 secretion by HUVEC (ELISA); format: cell-based; conditions: Homo sapiens, 30 min compound, then 5 ng/ml IL-1β, 24 h
# Procedure: FLS, HUVEC, SW982, and THP-1 cells were plated in 96 well plates (10^4 to 10^5 cells/well) for 48 h before treatment. At 2 days post-confluency, the cells were serum-starved and washed twice (with the exception of THP-1 cell, which were not washed) with FBS-free medium prior to the addition of test compounds. The cells were incubated in the presence or absence of test compounds or DMSO (vehicle control) for 30 min at 37°C in a 5% CO2 atmosphere, IL-1β (5 ng/ml) was added, and the cells were incubated for an additional 24 h. Culture supernatants were collected and stored at –80°C. The levels of MMP-1 and MMP-3 were determined in culture supernatants using commercially available ELISA kits according to the manufacturer’s instructions (R&D System, Minneapolis, MN, USA). IL-6 levels were also determined in the supernatants using a human IL-6 ELISA kit (BD Biosciences, San Jose, CA, USA).
# [3] = Cytotoxicity assay (CellTiter-Glo), HUVEC; format: cell-based; conditions: human, HUVECs; concentrations up to 50 µM; read-out: Cytotoxic effect HUVEC IC50
# Procedure: Cytotoxicity was analyzed using a CellTiter-Glo Luminescent Cell Viability Assay Kit (Promega), according to the manufacturer’s protocol. Briefly, cells were cultured at a density of 10^4 to 10^5 cells/well with different concentrations of test compounds (final concentration of DMSO was 1%) for the indicated periods of time (2, 12, or 24 h) at 37°C and 5% CO2. Following treatment, substrate was added to the cells, and the samples were analyzed with a Fluoroscan Ascent FL microplate reader.
# [4] = target: JNK1; set-up: method as in Schepetkin et al., 2019; conditions: previously reported binding affinity; ref Schepetkin et al., 2019; cited from earlier work
# [5] = target: JNK3; set-up: method as in Schepetkin et al., 2019; conditions: previously reported binding affinity; ref Schepetkin et al., 2019; cited from earlier work
# T1 sequence (P22303 32-614): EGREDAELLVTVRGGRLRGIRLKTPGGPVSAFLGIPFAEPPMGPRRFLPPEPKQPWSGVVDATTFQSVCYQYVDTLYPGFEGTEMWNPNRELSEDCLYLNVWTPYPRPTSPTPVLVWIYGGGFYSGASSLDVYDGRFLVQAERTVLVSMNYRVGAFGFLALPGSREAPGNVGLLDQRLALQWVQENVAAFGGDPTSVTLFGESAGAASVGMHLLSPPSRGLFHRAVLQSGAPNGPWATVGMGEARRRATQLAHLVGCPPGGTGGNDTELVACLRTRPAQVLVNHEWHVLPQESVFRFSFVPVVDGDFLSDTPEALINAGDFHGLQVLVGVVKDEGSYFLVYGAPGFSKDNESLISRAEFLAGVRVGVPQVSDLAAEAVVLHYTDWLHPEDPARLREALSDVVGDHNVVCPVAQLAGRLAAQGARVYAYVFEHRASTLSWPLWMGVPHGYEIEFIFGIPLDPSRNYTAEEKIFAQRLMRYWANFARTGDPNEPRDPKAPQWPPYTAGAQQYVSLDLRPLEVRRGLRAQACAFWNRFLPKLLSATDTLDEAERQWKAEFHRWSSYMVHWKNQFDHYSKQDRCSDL
Structure (SMILES),AChE inhibition IC30 [1] [µM],IC50 [2] [µM],IC50 [3] [µM],Kd [4] [µM],JNK3 Kd [5]
"O=c1c2ccccc2nc2n1-c1ccccc1/C2=N/O [TRYP-Ox, tryptanthrin-6-oxime]",12.0 ± 3.9,0.9 ± 0.3,> 50,,
"O=C1c2ccccc2-n2c1nc1ccccc1c2=O [TRYP, indolo[2,1-b]quinazolin-6,12-dione]",4.2 ± 1.2,6.4 ± 2.7,13.8 ± 1.5,23,No binding
